Values after ≈ are worked out from the molar mass of the structure shown. Active and inactive are the calls of the source. The calls are words filed in the database; no cut-off is given here. Positions of bridges follow the written chain, without caps; N, C: chain ends. Non-standard residues stand in square brackets, D forms with d. Residues, ends and D or L forms follow the SMILES beside them. Arg(Nω-βLac) = N=C(NCCC[C@H](N)C(=O)O)N[C@@H]1O[C@H](CO)[C@@H](O[C@@H]2O[C@H](CO)[C@H](O)[C@H](O)[C@H]2O)[C@H](O)[C@H]1O; S5 = C=CCCC[C@](C)(N)C(=O)O
Experiments:
Klebsiella pneumoniae [1] = test: Antimicrobial activity against Klebsiella pneumoniae ATCC 13883 assessed as growth inhibition measured after 8 hrs incubation by standard broth dilution assay; assay type: functional
Staphylococcus aureus [2] = test: Antimicrobial activity against methicillin-resistant Staphylococcus aureus ATCC 43300 assessed as growth inhibition measured after 8 hrs incubation by standard broth dilution assay; assay type: functional
Pseudomonas aeruginosa = test: Antimicrobial activity against Pseudomonas aeruginosa ATCC 27853 assessed as growth inhibition measured after 8 hrs incubation by standard broth dilution assay; assay type: functional
Streptococcus pneumoniae = test: Antimicrobial activity against Streptococcus pneumoniae ATCC 49619 assessed as growth inhibition measured after 8 hrs incubation by standard broth dilution assay; assay type: functional
[3] = Hemolytic activity in BALB/c mouse red blood cells assessed as hemolysis incubated for 1 hrs; assay type: toxicity, cell-based, Erythrocyte; conditions: read-out: HD50
Staphylococcus aureus [4] = test: In vivo antibacterial activity against methicillin-resistant Staphylococcus aureus ATCC 43300 infected locally in full thickness skin wound mouse model assessed as reduction in inflammatory cells in wound at 4 mg/kg treated with absorbable gelatin sponge measured after 7 days; assay type: functional, organism-based; conditions: time 7.0 day
Cell membrane [5] = test: Induction of cell membrane damage in Klebsiella pneumoniae ATCC 13883 assessed as increase in red fluorescence at MIC measured after 1 hr incubation by PI based confocal microscopy; assay type: subcellular
Cell membrane [6] = test: Induction of cell membrane damage in Klebsiella pneumoniae ATCC 13883 assessed as increase in green fluorescence at MIC measured after 1 hr incubation by SYTO9 confocal microscopy; assay type: subcellular
Cell membrane [7] = test: Induction of cell membrane damage in methicillin-resistant Staphylococcus aureus ATCC 43300 assessed as increase in red fluorescence at MIC measured after 1 hr incubation by PI based assay; assay type: subcellular
Cell membrane [8] = test: Induction of cell membrane damage in Klebsiella pneumoniae ATCC 13883 assessed as corrugation, blebbing, breakage, and fragmentation at MIC measured after 1 hr incubation by Scanning electron microscopy; assay type: subcellular
Staphylococcus aureus [9] = test: Antibiofilm activity in methicillin-resistant Staphylococcus aureus ATCC 43300 assessed as prevention of biofilm formation at 0.5 to 4 times of MIC measured after 24 hrs by crystal violet staining based assay; assay type: functional, organism-based
Staphylococcus aureus [10] = test: Antibiofilm activity in methicillin-resistant Staphylococcus aureus ATCC 43300 assessed as reduction in biofilm formation at 4.6 ug/ml measured after 24 hrs by crystal violet staining based assay relative to control; assay type: functional; design: scale not given: the % may be the effect or the level left; conditions: dose 4.6 µg/ml
Klebsiella pneumoniae [11] = test: Antibacterial activity against Klebsiella pneumoniae ATCC 13883 assessed as reduction in bacterial count at 4.6 ug/ml in bio-film adjusted BM2 medium; assay type: functional, organism-based; conditions: dose 4.6 µg/ml
[12] = Toxicity in mouse skin assessed as abscesses and visual lesions at 40 mg/kg, sc by histological analysis; assay type: organism-based; conditions: in vivo
[13] = Toxicity in mouse assessed as inflammatory infiltration at 40 mg/kg, sc by H and E staining based assay; assay type: organism-based; conditions: in vivo
Staphylococcus aureus [14] = test: In vivo antibacterial activity against methicillin-resistant Staphylococcus aureus ATCC 43300 infected locally in full thickness skin wound mouse model assessed as clean and less exudate at 1 mg/kg treated with absorbable gelatin sponge measured on early healing stage; assay type: functional, organism-based; conditions: route id
Staphylococcus aureus [15] = test: In vivo antibacterial activity against methicillin-resistant Staphylococcus aureus ATCC 43300 infected locally in full thickness skin wound mouse model assessed as reduced skin damage by promoting wound healing at 4 mg/kg treated with absorbable gelatin sponge measured on early healing stage; assay type: functional, organism-based; conditions: route id
Staphylococcus aureus [16] = test: In vivo antibacterial activity against methicillin-resistant Staphylococcus aureus ATCC 43300 infected locally in full thickness skin wound mouse model assessed as reduction in bacterial load in skin wound at 1 mg/kg treated with absorbable gelatin sponge measured after 3 days; assay type: functional, organism-based; conditions: time 3.0 day
Staphylococcus aureus [17] = test: In vivo antibacterial activity against methicillin-resistant Staphylococcus aureus ATCC 43300 infected locally in full thickness skin wound mouse model assessed as reduction in bacterial load in skin wound at 4 mg/kg treated with absorbable gelatin sponge measured after 3 days; assay type: functional, organism-based; conditions: time 3.0 day
Staphylococcus aureus [18] = test: In vivo antibacterial activity against methicillin-resistant Staphylococcus aureus ATCC 43300 infected locally in full thickness skin wound mouse model assessed as reduction in bacterial load in skin wound at 4 mg/kg treated with absorbable gelatin sponge measured after 7 days; assay type: functional, organism-based; conditions: time 7.0 day
Staphylococcus aureus [19] = test: In vivo antibacterial activity against methicillin-resistant Staphylococcus aureus ATCC 43300 infected locally in full thickness skin wound mouse model assessed as reduction in bacterial load in skin wound at 1 mg/kg treated with absorbable gelatin sponge measured after 7 days; assay type: functional, organism-based; conditions: time 7.0 day
Klebsiella pneumoniae [20] = test: In vivo antibacterial activity against Klebsiella pneumoniae ATCC 13883 induced bacterial pneumonia mouse model assessed as reduction in bacterial load in lungs at 1 mg/kg, injected into trachea after 24 hrs of infection measured after 3 to 7 days; assay type: functional, organism-based
Klebsiella pneumoniae [21] = test: In vivo antibacterial activity against Klebsiella pneumoniae ATCC 13883 induced bacterial pneumonia mouse model assessed as reduction in bacterial infection induced weight loss at 1 mg/kg, injected into trachea after 24 hrs of infection measured after 3 to 7 days; assay type: functional, organism-based
Klebsiella pneumoniae [22] = test: In vivo antibacterial activity against Klebsiella pneumoniae ATCC 13883 induced bacterial pneumonia mouse model assessed as reduction in bacterial infection induced weight loss at 4 mg/kg, injected into trachea after 24 hrs of infection measured after 3 to 7 days; assay type: functional, organism-based
Klebsiella pneumoniae [23] = test: In vivo antibacterial activity against Klebsiella pneumoniae ATCC 13883 induced bacterial pneumonia mouse model assessed as increase in survival of mouse at 1 mg/kg, injected into trachea after 24 hrs of infection measured after 3 to 7 days; assay type: functional, organism-based
Klebsiella pneumoniae [24] = test: In vivo antibacterial activity against Klebsiella pneumoniae ATCC 13883 induced bacterial pneumonia mouse model assessed as increase in survival of mouse at 4 mg/kg, injected into trachea after 24 hrs of infection measured after 3 to 7 days; assay type: functional, organism-based
Klebsiella pneumoniae [25] = test: In vivo antibacterial activity against Klebsiella pneumoniae ATCC 13883 induced bacterial pneumonia mouse model assessed as reduction in bacterial infection induced inflammatory response in lungs by measuring large number of alveoli at 1 mg/kg, injected into trachea after 24 hrs of infection measured after 3 to 7 days by H and E staining based assay; assay type: functional, organism-based
Klebsiella pneumoniae [26] = test: In vivo antibacterial activity against Klebsiella pneumoniae ATCC 13883 induced bacterial pneumonia mouse model assessed as reduction in bacterial infection induced IL-6 level in lung tissue at 4 mg/kg, injected into trachea after 24 hrs of infection measured after 3 to 7 days; assay type: functional, organism-based
Klebsiella pneumoniae [27] = test: In vivo antibacterial activity against Klebsiella pneumoniae ATCC 13883 induced bacterial pneumonia mouse model assessed as reduction in bacterial infection induced TNF-alpha level in lung tissue at 4 mg/kg, injected into trachea after 24 hrs of infection measured after 3 to 7 days; assay type: functional, organism-based
Klebsiella pneumoniae [28] = test: In vivo antibacterial activity against Klebsiella pneumoniae ATCC 13883 induced bacterial pneumonia mouse model assessed as reduction in bacterial infection induced IL-1beta mRNA expression in lung tissue at 4 mg/kg, injected into trachea after 24 hrs of infection measured after 3 to 7 days; assay type: functional, organism-based
Klebsiella pneumoniae [29] = test: In vivo antibacterial activity against Klebsiella pneumoniae ATCC 13883 induced bacterial pneumonia mouse model assessed as reduction in bacterial infection induced IL-6 mRNA expression in lung tissue at 4 mg/kg, injected into trachea after 24 hrs of infection measured after 3 to 7 days; assay type: functional, organism-based
Klebsiella pneumoniae [30] = test: In vivo antibacterial activity against Klebsiella pneumoniae ATCC 13883 induced bacterial pneumonia mouse model assessed as reduction in bacterial infection induced TNF-alpha mRNA expression in lung tissue at 4 mg/kg, injected into trachea after 24 hrs of infection measured after 3 to 7 days; assay type: functional, organism-based

SMILES: CC(=O)N[C@@H](CCCCN)C(=O)N[C@@H](CCCCN)C(=O)N[C@@H](CCCNC(=N)N)C(=O)N[C@H](C(=O)N[C@@H](CCCCN)C(=O)N[C@@H](CCCCN)C(=O)N[C@@H](CCCNC(=N)N)C(=O)N[C@@]1(C)CCC/C=C\CCC[C@@](C)(C(=O)N[C@@H](CCCCN)C(=O)N[C@@]2(C)CCC/C=C\CCC[C@@](C)(C(=O)N[C@@H](CC(C)C)C(=O)N[C@@H](CCCCN)C(=O)N[C@@H](CCCCN)C(=O)N3CCC[C@H]3C(=O)N[C@H](C(=O)N[C@@H](CCCNC(=N)N[C@@H]3O[C@H](CO)[C@@H](O[C@@H]4O[C@H](CO)[C@H](O)[C@H](O)[C@H]4O)[C@H](O)[C@H]3O)C(N)=O)C(C)C)NC(=O)[C@H](CCCNC(=N)N)NC(=O)[C@H](Cc3c[nH]c4ccccc34)NC(=O)[C@H](Cc3ccc(O)cc3)NC2=O)NC(=O)[C@H](CC(C)C)NC(=O)[C@H](CCCCN)NC(=O)[C@H](Cc2ccccc2)NC1=O)C(C)C (Ac-KKRVKKR[S5]FKL[S5]K[S5]YWR[S5]LKKPV[Arg(Nω-βLac)]-NH2; staple (Z) 8-12, 14-18)
- MIC (Klebsiella pneumoniae [1]): 1.1 µg/mL (≈ 0.31 µM)
- MIC (Staphylococcus aureus [2]): 1.1 µg/mL (≈ 0.31 µM)
- MIC (Pseudomonas aeruginosa): 1.1 µg/mL (≈ 0.31 µM)
- MIC (Streptococcus pneumoniae): 1.1 µg/mL (≈ 0.31 µM)
- HC50 at 1 h [3]: 87.6 µg/mL
- Activity (Staphylococcus aureus [4]): Active
- Activity (Cell membrane [5]): Active
- Activity (Cell membrane [6]): Active
- Activity (Cell membrane [7]): Active
- Activity (Cell membrane [8]): Active
- Activity (Staphylococcus aureus [9]): Dose-dependent-effect
- Activity (Staphylococcus aureus [10]): 80.13%
- Activity (Klebsiella pneumoniae [11]): inactive
- Activity [12]: Non-toxic
- Activity [13]: Toxic
- Activity (Staphylococcus aureus [14]): Active; Model Group Showed Yellowish Compared With The Wounds Treated With Compound
- Activity (Staphylococcus aureus [15]): Active
- Activity (Staphylococcus aureus [16]): Active
- Activity (Staphylococcus aureus [17]): Active
- Activity (Staphylococcus aureus [18]): Active
- Activity (Staphylococcus aureus [19]): Active
- Activity (Klebsiella pneumoniae [20]): Active; Compound Showed Superior Therapeutic Effect Than Slp-0
- Activity (Klebsiella pneumoniae [21]): Active
- Activity (Klebsiella pneumoniae [22]): Active
- Activity (Klebsiella pneumoniae [23]): Active
- Activity (Klebsiella pneumoniae [24]): Active
- Activity (Klebsiella pneumoniae [25]): Active
- Activity (Klebsiella pneumoniae [26]): Active
- Activity (Klebsiella pneumoniae [27]): Active
- Activity (Klebsiella pneumoniae [28]): Active
- Activity (Klebsiella pneumoniae [29]): Active
- Activity (Klebsiella pneumoniae [30]): Active

Reference: ChEMBL document CHEMBL6153110, “Peptide Double-Stapling and Arginine N-Glycosylation Triggered the Development of Therapeutic Antimicrobial Peptides Capable of Killing Drug-Resistant Bacteria in Mice” (J Med Chem, 2025)
